The text below walks through data of ChEMBL document CHEMBL1201862, “PubChem BioAssay data set” (2004).

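Compound exposure: 48 hours, 5 concentrations, 96-well plates. GI50 marks 50% less growth.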 Calls of active or inactive are those of the source. Rule as the data show it: active = GI50 up to about 1.1 µM and inactive = higher.

Some test systems named below: A549; CAKI-1; DU-145; HOP-62; HT-29; Hs-578T; IGROV-1; KM12; LOX IMVI; M14; MDA-MB-231; MDA-N; NCI-H226; OVCAR-8; RPMI-8226; SF-295; SK-MEL-5; SK-OV-3; SR; UO-31.
Holding throughout (assay): NCI tumour cell line growth inhibition, 48 h

For `COc1cc(-c2coc3c(OC)c(OC4OC(CO)C(O)C(O)C4O)c(OC)cc3c2=O)cc(OC)c1C` (stereo not given), the GI50 in the assay with A549 is 7.13 µM (inactive); in the assay on CAKI-1, 14.7 µM (inactive); in the assay on DU-145, 8.41 µM (inactive); with HOP-62, 15.2 µM (inactive); in the assay with HT-29, 7.03 µM (inactive); with Hs-578T it was 4.17 µM (inactive). Moreover, the GI50 was 4.65 µM (inactive) in the assay with IGROV-1; 4.79 µM (inactive) in the assay on KM12; 3.37 µM (inactive) with LOX IMVI; 4.45 µM (inactive) with M14; 15.1 µM (inactive) in the assay with MDA-MB-231; 2.21 µM (inactive) in the assay on MDA-N. Further, the GI50 in the assay on NCI-H226 was 25.7 µM (inactive); in the assay on OVCAR-8, 3.38 µM (inactive); in the assay with RPMI-8226, 4.54 µM (inactive); in the assay on SF-295, 11.7 µM (inactive); in the assay with SK-MEL-5, 12.1 µM (inactive); with SK-OV-3, 7.96 µM (inactive). The GI50 was 4.35 µM (inactive) with SR and 4.42 µM (inactive) in the assay on UO-31.
`CNn1c(-c2ccccc2)n[nH]c1=O`: the GI50 in the assay on A549, in the assay on CAKI-1, with DU-145, in the assay on HOP-62, with HT-29 and in the assay on Hs-578T was > 100 µM (inactive) each time. Further, the GI50 in the assay on IGROV-1, with KM12, with LOX IMVI, in the assay with M14, in the assay on MDA-MB-231 and with MDA-N was > 100 µM (inactive) in each case. In addition, the GI50 with NCI-H226, with OVCAR-8, in the assay on RPMI-8226, in the assay on SF-295, in the assay with SK-MEL-5 and in the assay with SK-OV-3 was > 100 µM (inactive) each time. For the same compound, the GI50 in the assay with SR and in the assay on UO-31 was > 100 µM (inactive) each time.
Take `c1ccc(-c2cc(C3CO3)c3ccccc3n2)cc1` (stereo not given): the GI50 is 20.1 µM (inactive) with A549; 22.5 µM (inactive) with CAKI-1; 16.9 µM (inactive) with DU-145; 26.5 µM (inactive) in the assay on HOP-62; 19.4 µM (inactive) with HT-29; 29.3 µM (inactive) in the assay on Hs-578T. Moreover, the GI50 is 17.9 µM (inactive) in the assay with IGROV-1; 17.5 µM (inactive) with KM12; 18.6 µM (inactive) in the assay on LOX IMVI; 18.9 µM (inactive) in the assay on M14; 23.3 µM (inactive) in the assay on MDA-MB-231; 19.1 µM (inactive) with MDA-N. For the same compound, the GI50 was 19.1 µM (inactive) with NCI-H226; 20 µM (inactive) in the assay with OVCAR-8; 21.9 µM (inactive) with RPMI-8226; 35.2 µM (inactive) in the assay with SF-295; 16.7 µM (inactive) in the assay on SK-MEL-5; 35 µM (inactive) in the assay with SK-OV-3. The GI50 in the assay on SR was 18.3 µM (inactive); in the assay with UO-31 it was 1.52 µM (inactive).
On to `CC(NC(=O)C(Cc1ccc(OC(=O)c2ccccc2)cc1)NC(=O)OC(C)(C)C)C(=O)NCC(=O)NC(Cc1ccccc1)NC(=O)OCc1ccccc1` (stereo not given), for which the GI50 was > 100 µM (inactive) with A549; > 100 µM (inactive) in the assay on CAKI-1; > 100 µM (inactive) in the assay with DU-145; > 100 µM (inactive) in the assay with HOP-62; > 100 µM (inactive) in the assay on HT-29; 59.8 µM (inactive) in the assay with Hs-578T. For the same compound, the GI50 in the assay with IGROV-1, in the assay with KM12, with LOX IMVI, in the assay on M14, with MDA-MB-231 and with MDA-N was > 100 µM (inactive) in each case. In addition, the GI50 in the assay on NCI-H226 was > 100 µM (inactive); in the assay with OVCAR-8, > 100 µM (inactive); with RPMI-8226 it was 50.6 µM (inactive); in the assay with SF-295, > 100 µM (inactive); with SK-MEL-5, 71.6 µM (inactive); with SK-OV-3, > 100 µM (inactive). The GI50 in the assay with SR is 87.5 µM (inactive); in the assay with UO-31, > 100 µM (inactive).
For the compound `C=CC(c1ccccc1)[C@@]1(OC(C)=O)C(=O)C(=O)OC1C1COC(C)(C)O1` (stereo not given in full), the GI50 in the assay with A549 is 18 µM (inactive); with CAKI-1 it was 4.72 µM (inactive); in the assay on DU-145, 21.2 µM (inactive); in the assay with HOP-62, 17.3 µM (inactive); in the assay on HT-29, 15.1 µM (inactive); in the assay on Hs-578T it was 22.9 µM (inactive). For the same compound, the GI50 is 15.3 µM (inactive) in the assay with IGROV-1; 15.2 µM (inactive) in the assay on KM12; 4.16 µM (inactive) with LOX IMVI; 11.1 µM (inactive) in the assay with M14; 14.4 µM (inactive) in the assay on MDA-MB-231; 10.4 µM (inactive) with MDA-N. Also, the GI50 in the assay with NCI-H226 is 17.2 µM (inactive); with OVCAR-8, 13.1 µM (inactive); in the assay with RPMI-8226, 5.79 µM (inactive); in the assay with SF-295, 16.7 µM (inactive); in the assay with SK-MEL-5, 15.9 µM (inactive); in the assay with SK-OV-3 it was 18.1 µM (inactive). The GI50 in the assay with SR was 2.43 µM (inactive); in the assay with UO-31, 11.5 µM (inactive).
As to `Nc1ccc2[nH]c(C(=O)N3CC(CCl)c4c3cc(N)c3ccccc43)cc2c1` (stereo not given), the GI50 with A549 was < 0.01 µM (active); in the assay on CAKI-1 it was < 0.01 µM (active); with DU-145, < 0.01 µM (active); in the assay with HOP-62, < 0.01 µM (active); in the assay with HT-29 it was < 0.01 µM (active); in the assay with Hs-578T, 0.0204 µM (active). The GI50 is < 0.01 µM (active) in the assay with IGROV-1; 0.0114 µM (active) in the assay on KM12; < 0.01 µM (active) in the assay with LOX IMVI; 0.0107 µM (active) in the assay on M14; < 0.0208 µM (active) in the assay on MDA-MB-231; < 0.01 µM (active) in the assay on MDA-N. In addition, the GI50 in the assay with NCI-H226 is 0.0105 µM (active); in the assay on OVCAR-8, < 0.01 µM (active); in the assay with RPMI-8226, < 0.0108 µM (active); in the assay with SF-295 it was < 0.01 µM (active); in the assay with SK-MEL-5, < 0.01 µM (active); in the assay with SK-OV-3, 0.0175 µM (active). The figures for the GI50 in the assay on SR and in the assay on UO-31 were < 0.01 µM (active) and 0.0114 µM (active), respectively.
As for `COC(=O)CNC(=O)CCC(C)[C@H]1CCC2C3C(C[C@H](OC(C)=O)[C@@]21C)[C@@]1(C)CCC2(C[C@H]1C[C@H]3OC(C)=O)OOC1(CC[C@]3(C)C4C[C@H](OC(C)=O)[C@@]5(C)C(CC[C@@H]5C(C)CCC(=O)NCC(=O)OC)C4[C@H](OC(C)=O)C[C@@H]3C1)OO2` (stereo not given in full), the GI50 in the assay on A549 is 0.914 µM (active); in the assay on CAKI-1, 2.15 µM (inactive); in the assay on DU-145, 0.933 µM (active); in the assay on HOP-62, 0.746 µM (active); in the assay on HT-29, 1.01 µM (active); with Hs-578T, 0.938 µM (active). Also, the GI50 is 0.836 µM (active) with IGROV-1; 3.98 µM (inactive) in the assay on KM12; 0.962 µM (active) in the assay with LOX IMVI; 1.37 µM (inactive) with M14; 1.31 µM (inactive) with MDA-MB-231; 3.44 µM (inactive) in the assay on MDA-N. In addition, the GI50 in the assay on NCI-H226 is 1.12 µM (active); with OVCAR-8 it was 0.746 µM (active); in the assay with RPMI-8226 it was 0.309 µM (active); in the assay on SF-295 it was 5.65 µM (inactive); in the assay on SK-MEL-5 it was 0.94 µM (active); in the assay with SK-OV-3, 5.37 µM (inactive). Moreover, the GI50 is 0.381 µM (active) in the assay with SR and 0.828 µM (active) in the assay on UO-31.
